In patent US11840541B2 (priority 2014, dated 2023):
Where two headings read alike, the source gives them in different places.

Assays:
Experiment in all cases: cell-based
Human KOR = target: T1, Human KOR (Homo sapiens, UniProt P41145); conditions: for Emax: read-out: Emax in parentheses, Human KOR
T1 construct: expressed in transfected cells; host or cells: HEK-293T

Human MOR = target: T2, Human MOR (Homo sapiens, UniProt P35372)
T2 construct: expressed in transfected cells; host or cells: HEK-293T
T2 sequence (P35372 whole entry): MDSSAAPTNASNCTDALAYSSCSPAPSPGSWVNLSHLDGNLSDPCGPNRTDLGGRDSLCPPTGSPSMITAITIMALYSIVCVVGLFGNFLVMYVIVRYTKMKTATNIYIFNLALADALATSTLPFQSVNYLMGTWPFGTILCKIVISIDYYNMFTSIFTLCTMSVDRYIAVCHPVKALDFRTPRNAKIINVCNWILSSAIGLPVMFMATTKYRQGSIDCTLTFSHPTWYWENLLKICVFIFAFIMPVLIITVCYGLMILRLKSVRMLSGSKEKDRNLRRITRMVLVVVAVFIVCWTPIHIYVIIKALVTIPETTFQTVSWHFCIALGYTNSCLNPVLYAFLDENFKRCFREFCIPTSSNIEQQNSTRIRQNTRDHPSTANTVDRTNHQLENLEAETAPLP

Human DOR = target: T3, Human DOR (Homo sapiens, UniProt P41143)
T3 construct: expressed in transfected cells; host or cells: HEK-293T
T3 sequence (P41143 whole entry): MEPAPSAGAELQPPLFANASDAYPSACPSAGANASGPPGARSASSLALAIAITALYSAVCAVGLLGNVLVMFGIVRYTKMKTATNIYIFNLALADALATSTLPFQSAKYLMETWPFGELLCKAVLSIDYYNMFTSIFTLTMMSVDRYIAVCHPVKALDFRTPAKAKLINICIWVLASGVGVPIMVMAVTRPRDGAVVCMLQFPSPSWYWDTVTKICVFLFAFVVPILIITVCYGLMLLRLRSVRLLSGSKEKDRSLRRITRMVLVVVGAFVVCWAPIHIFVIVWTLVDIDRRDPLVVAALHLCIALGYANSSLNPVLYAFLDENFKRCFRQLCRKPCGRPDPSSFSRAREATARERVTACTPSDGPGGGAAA

[1] = EC50 at indicated opioid receptor, Human MOR
[2] = read-out: EC50 at indicated opioid receptor, Human DOR
[3] = EC50 at indicated opioid receptor, Human KOR
[4] = EC50 at indicated opioid receptor, Human DOR
[5] = EC50, induced BRET signal, Human KOR
[6] = EC50, induced BRET signal, Human MOR
[7] = EC50, induced BRET signal, Human DOR

T1 sequence (P41145 whole entry): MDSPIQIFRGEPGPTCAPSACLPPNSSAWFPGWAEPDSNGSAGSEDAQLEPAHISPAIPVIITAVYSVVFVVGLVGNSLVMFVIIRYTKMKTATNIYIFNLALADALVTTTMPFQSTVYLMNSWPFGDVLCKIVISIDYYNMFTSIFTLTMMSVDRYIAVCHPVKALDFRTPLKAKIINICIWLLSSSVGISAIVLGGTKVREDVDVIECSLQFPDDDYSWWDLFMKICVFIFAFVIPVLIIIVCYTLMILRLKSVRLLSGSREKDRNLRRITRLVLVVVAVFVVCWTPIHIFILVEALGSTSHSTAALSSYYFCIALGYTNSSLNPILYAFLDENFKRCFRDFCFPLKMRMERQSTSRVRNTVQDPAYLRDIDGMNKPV

Compound | EC50 (Human MOR; [1]) [µM] | EC50 (Human KOR; [3]) [µM] | EC50 (Human DOR; [4]) [µM] | also measured
CCC1CC2CC3c4oc5ccc(OC)cc5c4CCN(C2)C13 (single isomer, unassigned) [Compound 34c] | > 10 |  |  | EC50 (Human KOR; read-out: EC50 at indicated opioid receptor, Human KOR): > 10 µM; EC50 (Human DOR; [2]): > 100 µM
CCC1CC2CC3c4oc5ccc(OC)cc5c4CCN(C2)C13 (single isomer, unassigned) [Compound 34d] | > 100 | > 10 | > 100 | 
CCC1CC2(C)CC3c4oc5ccc(O)cc5c4CCN(C2)C13 (single isomer, unassigned) [Compound 60b] |  |  |  | EC50 (Human KOR; read-out: EC50, Human KOR): < 10 µM; EC50 (Human MOR; read-out: EC50, Human MOR): < 10 µM; EC50 (Human DOR; EC50, Human DOR): < 10 µM
CCC1CC2(C)CC3c4oc5ccc(O)cc5c4CCN(C2)C13 (single isomer, unassigned) [Compound 60c] |  |  |  | EC50 (Human KOR; EC50, Human KOR): < 10 µM; EC50 (Human MOR; EC50, Human MOR): < 10 µM; EC50 (Human DOR; EC50, Human DOR): > 10 µM
CCC1CC2CC3c4oc5ccc(O)cc5c4C[C@H](C)N(C2)C13 (single isomer, unassigned) [α-exo-52e] |  |  |  | Emax (Human KOR): 88%; EC50 (μM) with Emax in parentheses, Human MOR (Human MOR): 0.40 μM ± 0.056 (98%); Emax (Human DOR; read-out: Emax in parentheses, Human DOR): 98%
CCC1CC2CC3c4oc5ccc(O)cc5c4C[C@H](C)N(C2)C13 (single isomer, unassigned) [α-exo-52f] |  |  | > 100 | EC50 with Emax in parentheses (Human KOR): 0.14 μM ± 0.006 (72%); EC50 (μM) with Emax in parentheses, Human MOR (Human MOR): 0.48 μM ± 0.20 (50%)
CCC1CC2CC3c4oc5ccccc5c4CCN(C2)C13 (stereo not shown) [Compound 34a, 7-ethyl-6,6a,7,8,9,10,12,13-octahydro-6,9-methanobenzofuro[2,3-d] pyrido[1,2-a]azepine] | > 100 | > 10 | > 100 | 
CCCC1CC2CC3c4oc5ccc(OC)cc5c4CCN(C2)C13 (stereo not shown) [Compound 34e] | > 10 | > 100 | > 100 | 
CCCC1CC2CC3c4oc5ccc(OC)cc5c4CCN(C2)C13 (stereo not shown) [Compound 34f] | > 100 | > 10 |  | EC50 (Human DOR; [2]): > 100 µM
COc1ccc2oc3c(c2c1)CCN1CC2CCC1C3C2 (stereo not shown) [Compound 34h] | > 100 | > 10 | > 100 | 
CCCCC1CC2CC3c4oc5ccc(OC)cc5c4CCN(C2)C13 (stereo not shown) [Compound 34i] | > 10 | > 10 | > 100 | 
CCC1CC2CC3c4oc5ccc(F)cc5c4CCN(C2)C13 (stereo not shown) [Compound 34j] | > 10 | > 10 | > 100 | 
CCC1CC2CC3c4oc5cc(OC)ccc5c4CCN(C2)C13 (stereo not shown) [Compound 34k] | < 10 | < 10 | > 10 | 
CCC1CC2CC3c4oc5cc(F)c(OC)cc5c4CCN(C2)C13 (stereo not shown) [Compound 34l] | > 100 | > 10 | > 100 | 
COCC1CC2CC3c4oc5ccc(OC)cc5c4CCN(C2)C13 (stereo not shown) [Compound 34m] | > 10 | > 10 | > 10 | 
COc1ccc2oc3c(c2c1)CCN1CC2CC(c4ccccc4)C1C3C2 (stereo not shown) [Compound 34n] | > 100 | > 10 | > 100 | 
CCC1CC2CC3c4sc5ccccc5c4CCN(C2)C13 (stereo not shown) [Compound 34q, 7-ethyl-6,6a,7,8,9,10,12,13-octahydro-6,9-methanobenzo[4,5] thieno[2,3-d]pyrido[1,2-a]azepine] | > 100 | > 10 | > 100 | 
CCC1CC2CC3c4sc5ccc(OC)cc5c4CCN(C2)C13 (stereo not shown) [Compound 34r] | > 10 | > 10 | > 100 | 
CCC1CC2CC3c4oc5ccc(O)cc5c4CCN(C2)C13 (stereo not shown) [Compound 35a] | < 10 | < 10 | < 10 | agonist activity at KOR (in words) (Human KOR): full agonist; EC50 (Human KOR; [5]): 0.66 ± 0.13 µM; agonist activity at MOR (in words) (Human MOR): full agonist; EC50 (Human MOR; [6]): 0.98 ± 0.14 µM; agonist activity at DOR (in words) (Human DOR): full agonist; EC50 (Human DOR; [7]): 4.5 ± 1.2 µM
CCCC1CC2CC3c4oc5ccc(O)cc5c4CCN(C2)C13 (stereo not shown) [Compound 35c] | < 10 | < 10 | < 10 | 
CCCC1CC2CC3c4oc5ccc(O)cc5c4CCN(C2)C13 (stereo not shown) [Compound 35d] |  |  |  | agonist activity at KOR (in words) (Human KOR): agonist activity; EC50 (Human KOR; [5]): 0.297 ± 0.03 µM; agonist activity at MOR (in words) (Human MOR): agonist activity; EC50 (Human MOR; [6]): 0.922 ± 0.282 µM; agonist activity at DOR (in words) (Human DOR): agonist activity; EC50 (Human DOR; [7]): 5.7 ± 5.1 µM

Compound | EC50 (Human MOR; [1]) [µM] | EC50 (Human KOR; [3]) [µM] | EC50 (Human DOR; [4]) [µM] | also measured
Oc1ccc2oc3c(c2c1)CCN1CC2CCC1C3C2 (stereo not shown) [Compound 35e] | < 10 | < 10 | > 100 | 
CCC1CC2CC3c4oc5cc(O)ccc5c4CCN(C2)C13 (stereo not shown) [Compound 35f] | < 10 | < 10 | > 10 | 
Oc1ccc2oc3c(c2c1)CCN1CC2CC(Cc4ccccc4)C1C3C2 (stereo not shown) [Compound 35g] | < 10 | < 10 | < 10 | 
CCCCC1CC2CC3c4oc5ccc(O)cc5c4CCN(C2)C13 (stereo not shown) [Compound 35h] | < 10 | < 10 | < 10 | 
COCC1CC2CC3c4oc5ccc(O)cc5c4CCN(C2)C13 (stereo not shown) [Compound 35i] | < 10 | < 10 | < 10 | 
OCC1CC2CC3c4oc5ccc(O)cc5c4CCN(C2)C13 (stereo not shown) [Compound 35j] | < 10 | < 10 | < 10 | 
CCC1CC2CC3c4oc5cc(F)c(O)cc5c4CCN(C2)C13 (stereo not shown) [Compound 35k] | < 10 | < 10 | < 10 | 
Oc1ccc2oc3c(c2c1)CCN1CC2CC(c4ccccc4)C1C3C2 (stereo not shown) [Compound 35l] | > 10 | > 10 | > 10 | 
Oc1ccc2oc3c(c2c1)CCN1CC2CC(c4ccccc4)C1C3C2 (stereo not shown) [Compound 35m] | < 10 | > 100 | < 10 | 
CCC1CC2CC3c4sc5ccc(O)cc5c4CCN(C2)C13 (stereo not shown) [Compound 35n] | < 10 | < 10 | > 100 | 
CCC1CC2CC3c4oc5cccc(OC)c5c4CCN(C2)C13 (stereo not shown) [Compound 51b] |  |  |  | EC50 (Human KOR; EC50, Human KOR): > 10 µM; EC50 (Human MOR; EC50, Human MOR): > 10 µM; EC50 (Human DOR; EC50, Human DOR): > 100 µM
CCC1CC2CC3c4oc5cc(C)c(OC)cc5c4CCN(C2)C13 (stereo not shown) [Compound 51c] |  |  |  | EC50 (Human KOR; EC50, Human KOR): > 10 µM; EC50 (Human MOR; EC50, Human MOR): > 10 µM; EC50 (Human DOR; EC50, Human DOR): > 10 µM
CCC1CC2CC3c4oc5c(O)cccc5c4CCN(C2)C13 (stereo not shown) [Compound 52a] | > 100 | > 10 | > 100 | 
CCC1CC2CC3c4oc5cccc(O)c5c4CCN(C2)C13 (stereo not shown) [Compound 52b] | > 10 | > 100 | > 100 | 
CCC1CC2CC3c4oc5cc(C)c(O)cc5c4CCN(C2)C13 (stereo not shown) [Compound 52c] | > 10 | > 10 | > 10 | 
COCC1CC2CC3c4oc5ccc(OC)cc5c4CCN(C2)C13 (stereo not shown) [Compound 59g] |  |  |  | EC50 (Human KOR; EC50, Human KOR): < 10 µM; EC50 (Human MOR; EC50, Human MOR): > 100 µM; EC50 (Human DOR; EC50, Human DOR): > 100 µM
CC1C2CCC3C(C2)c2oc4ccc(O)cc4c2CCN13 (stereo not shown) [Compound 60d] |  |  |  | EC50 (Human KOR; EC50, Human KOR): < 10 µM; EC50 (Human MOR; EC50, Human MOR): < 10 µM; EC50 (Human DOR; EC50, Human DOR): > 100 µM
OCC1CC2CC3c4oc5ccc(O)cc5c4CCN(C2)C13 (stereo not shown) [Compound 60g] |  |  |  | EC50 (Human KOR; EC50, Human KOR): < 10 µM; EC50 (Human MOR; EC50, Human MOR): > 10 µM; EC50 (Human DOR; EC50, Human DOR): > 10 µM
Oc1ccc2oc3c(c2c1)CCN1CC2CC(Cc4ccccc4)C1C3C2 (stereo not shown) [Compound 60h] |  |  |  | EC50 (Human KOR; EC50, Human KOR): > 10 µM; EC50 (Human MOR; EC50, Human MOR): > 10 µM; EC50 (Human DOR; EC50, Human DOR): > 10 µM
CCC1CC2CC3c4oc5ccc(O)cc5c4C[C@@H](C)N(C2)C13 (stereo partly drawn) [α-endo-52e] |  |  | > 100 | Emax (Human KOR): 26%; Emax (Human MOR; read-out: Emax in parentheses, Human MOR): 24%
CCC1(CC)CC2CC3c4oc5ccc(O)cc5c4C[C@@H](C)N(C2)C31 (stereo partly drawn) [α-endo-52f] | > 100 |  | > 100 | agonist activity at KOR (in words) (Human KOR): selective KOR agonist; EC50 (Human KOR; [5]): 0.12 ± 0.014 µM; Emax (Human KOR): 47%; agonist activity at MOR (in words) (Human MOR): not active as agonist; agonist activity at DOR (in words) (Human DOR): not active as agonist
